Data from patent publication US20060258003A1, “Culture medium composition, culture method, and myoblasts obtained, and their uses” (CELOGOS, priority 2002, published 2006).

Legend:
human muscle cells [1] = experiment: Toxicity of commercial statins on human muscle cells; format: cell-based; details: 0-1 μM; FIG. 4; total culture time 5 days
Description: These experiments were reproduced with human muscle cells in order to test the toxicity of the commercial statins.
The experimentation procedure is as follows.
On day 1 the media are changed. On day 3 staining is carried out.
The total culture time is 5 days.
After aspiration of the culture medium, the cells are washed with PBS then fixed with 100% ethanol. 10 minutes later the cells are washed with water then stained with a solution of 10% Giemsa for 10 minutes. The final step is washing with water.
Images of the cells are obtained with an inverted microscope (Nikon) equipped with a digital camera and a motorized stage.

[2] = compared with other statins; cited from earlier work
human muscle cells [3] = experiment: Effect of Hepes buffer on long-term growth of human muscle cells; format: cell-based; details: 15 mM in culture medium
rat adipocyte cells = experiment: Cell test predictive of muscle toxicity, rat adipocyte cells; details: 0.5 μM; 2 days culture

COCc1c(C(C)C)nc(C(C)C)c(/C=C/[C@@H](O)C[C@@H](O)CC(=O)O)c1-c1ccc(F)cc1 [Cerivastatin]
toxicity on human muscle cells (human muscle cells [1]): high toxicity | toxicity in human clinical use [2]: most toxic statin

O=S(=O)(O)CCN1CCN(CCO)CC1 [Hepes]
growth of human muscle cells in the long term (human muscle cells [3]): inhibits the growth

CC[C@H](C)C(=O)O[C@H]1C[C@@H](C)C=C2C=C[C@H](C)[C@H](CC[C@@H]3C[C@@H](O)CC(=O)O3)[C@H]21 [Lovastatin]
sensitivity of adipocyte cells (rat adipocyte cells): insensitive
